Where “and” joins values, the source holds several entries; their conditions need not be identical. Identical values can stand only once. Like-named read-outs stand apart in the source and are kept apart here.

The subject of data set [1] is ligation-induced infarcted and reperfused rats. Briefly: Cardioprotective effects in ligation-induced infarcted and reperfused rats. Format: in vivo. To be noted: treated group, 10 mg/kg/h i.v., individual rats No. 1-10. The procedure:
2-(3,4-Dihydro-2,5,7,8-tetramethyl-6-methylcarbonyloxy-2H-1-benzopyran-2-yl)ethyl-N,N,N-trimethylammonium bromide was evaluated in ligation-induced infarcted and reperfused rats as follows. One of two groups of rats was infused intravenously with a solution of test compound in saline at a rate of 2.3 ml/h (10 mg/kg/h). The control group was infused with saline at the same rate. After 10 min of drug infusion, coronary arteries were ligated surgically for 60 min, ligation was loosened to allow reperfusion for 30 min. The ligation was retied and a dye (Evans Blue) was injected. The animals were sacrificed and the heart ventricles were removed and weighed. The unstained tissue was dissected and weighed; this represents the "area at risk", i.e. the area that was deprived of blood supply by ligation. To determine the infarcted area, the tissue was incubated with 2,3,5-triphenyltetrazolium chloride. Infarcted tissue became light colored and could be dissected and weighed. Thus, for each rat that survived the ligation a measurement of "area at risk" and of "infarcted area" was obtained and the ratio was calculated as given in Tables II and III.

A short description of data set [2]: superoxide radicals generated by xanthine oxidase/xanthine, detected by reduction of nitro blue tetrazolium. Type of data set: biochemical. The conditions noted are these: for superoxide radicals scavenged: at 200 μM; for IC50: read-out: IC50 (superoxide radical scavenging). The procedure: In another evaluation, superoxide radicals were generated by 4 mU of xanthine oxidase in the presence of 0.1 mM xanthine and detected by reduction of 40 μM nitro blue tetrazolium to the diformazan dye in a spectrophotometric assay as described by C. Beauchamp and I. Fridovich, (1971) Analyt. Biochem. 44, 276-287. 30 U of superoxide dismutase inhibited this reduction by 90% which, therefore, was due to superoxide radicals. […] Trolox is a commercial antioxidant and is a known potent superoxide radical scavenger. For comparison, D,L-penicillamine and N-2-mercaptopropionyl glycine at 200 μM scavenged only 14% of the superoxide radicals. Neither of the scavengers inhibited xanthine oxidase, when tested at 200 μM.

The test system of data set [3] is canine myocardial reperfusion injury. To be noted: Lucchesi and coworkers; cited from earlier work.
Data set [4] in a line: Affinity for cardiac tissue (radioactivity in heart and blood after intravenous 14C-labelled compound). Format: in vivo, rats. The conditions noted are these: rat, 0.91 mg base/kg i.v. The procedure:
Following the procedure described in Example 9, but using ^14 C-methyl p-toluenesulfonate in place of "cold material", ^14 C-labelled 2-(3,4-dihydro-2,5,7,8-tetramethyl-6-methylcarbonyloxy-2H-1-benzopyranan-2-yl)ethyl-N,N,N-tri-^14 C-methylammonium p-toluenesulfonate was synthesized. The preparation was diluted with "cold material" to 11.74 μCi/mg base.
24 rats were given 0.91 mg base/kg by intravenous route (by canula into the jugular vein). The animals were sacrificed in groups of 3 at the time periods indicated in Table I. Immediately before sacrifice a 0.5 ml blood sample was taken from an indwelling catheter in the carotid artery. The hearts were removed, blotted and weighed. The samples of tissue and blood were solubiized with Luma Solve (a quaternary ammonium hydroxide preparation) and radioactivity was determined in a scintillation counter.

The nature of data set [5]: autoxidation of 1-epinephrine (superoxide radical reduction, Misra and Fridovich). The conditions noted are these: 1-epinephrine 1×10^-4 M, EDTA 1×10^-4 M, 30° C.; read-out: 50% inhibition of the autoxidation rate (ID50). Format: biochemical. Here is the method:
2-(3,4-dihydro-6-hydroxy-2,5,7,8-tetramethyl-2H-1-benzopyran-2-yl)ethyl-N,N,N-trimethylammonium bromide, described in Example 1, was evaluated for its ability to reduce superoxide radicals in an assay described by H. P. Misra and J. Fridovich, 1972, J. Biol. Chem. 247, 3170-5. In this assay, the rate of autoxidation of 1-epinephrine (1×10^-4 M) in the presence of EDTA (1×10^-4 M) at 30° C. is followed spectrophotometrically following the increase of absorbance at 480 mn.
Misra and Fridovich report that bovine superoxide dismutase gave 50% inhibition at 46mg per ml.

Another data set relates to human α1 Pi. Briefly: Protection of α1 Pi from leukocyte-mediated inactivation (residual elastase inhibitory capacity). Format: cell-based. The conditions noted are these: for Relative PC50: concentration to protect 50% of elastase inhibitory capacity of α1 Pi, mean ± S.D. (n = 3) for Compound A; for inactivation of α1 Pi: zymosan-stimulated human leukocytes. The text has this:
Stimulated human leukocytes release radicals and other oxygen metabolites, which, during inflammation, act as microbicidal agents. At the same time, they release proteolytic enzymes, such as elastase, which are also microbicidal but potentially threaten the connective tissue of the host. An endogenous α1 -proteinase inhibitor (α1 Pi) normally protects the host tissue from proteolytic digestion. α1 Pi is, however, inactivated by the leukocyte-derived oxidants. The inactivation of α1 Pi is antagonized by the disclosed radical scavengers 2-(3,4-dihydro-6-hydroxy-2,5,7,8-tetramethyl-2H-1-benzopyran-2-yl)-N,N,N-trimethylethanammonium, 4-methylbenzylsulfonate (Compound A) and 3,4-dihydro-2-(2-dimethylaminoethyl)-2,5,7,8-tetramethyl-2H-1-benzopyran-6-ol (Compound B). The concentration needed to protect 50% of the elastase inhibitory capacity of α1 Pi (PC50) depends on the amount of stimulated leukocytes present.
The procedure described by Skosey and Chow was followed (see Skosey, J. L. and Chow, D. C. (1985) In Handbook of Methods for Oxygen Radical Research (Greenwald, R. A., ed.) pp. 413-416, CRC Press, Boca Raton). In short, human α1 Pi was incubated with zymosan-stimulated human peripheral-blood leukocytes in the absence or presence of the scavengers. The amount of α1 Pi protected from oxidative inactivation was determined by its residual elastase inhibitory capacity.

Data set [6] can be described thus: oral absorption and excretion. Format: in vivo.
The test system of the next data set is β2 -receptors. To be noted: infarcted reperfused heart, rats; Lukovic et al., 1992; cited from earlier work.
For data set [7], the system named is rats subjected to myocardial ischemia and reperfusion. To be noted: Lukovic et al., 1992; cited from earlier work.
Another data set concerns hyperlipidemic rabbits. To be noted: Carew et al., 1987; cited from earlier work.
[8] abbreviates: 4 mU xanthine oxidase, 0.1 mM xanthine, 40 μM nitro blue tetrazolium.

With `CC(=O)Oc1c(C)c(C)c2c(c1C)CCC(C)(CC[N+](C)(C)C)O2.[Br-]` (centres unmarked) [Example 2, 2-(3,4-Dihydro-2,5,7,8-tetramethyl-6-methylcarbonyloxy-2H-1-benzopyran-2-yl)ethyl-N,N,N-trimethylammonium bromide], in data set [1], the Tissue at risk was 307 mg and 255 mg and 176 mg and 381 mg and 310 mg and 207 mg and 395 mg and 229 mg and 50 mg and 285 mg.

The molecule `CC(S)C(=O)NCC(=O)O` (centres unmarked) [N-2-mercaptopropionyl glycine, reference compound] yielded a superoxide radicals scavenged in [2] of 14%. In addition, in data set [3], the “canine myocardial reperfusion injury” value was “reduce canine myocardial reperfusion injury”.

As to `CC(=O)Oc1c(C)c(C)c2c(c1C)CCC(C)(CC[N+](C)(C)C)O2.Cc1ccc(S(=O)(=O)[O-])cc1` (centres unmarked) [Example 9, 2-(3,4-Dihydro-2,5,7,8-tetramethyl-6-methylcarbonyloxy-2H-1-benzopyran-2-yl)ethyl-N,N,N-trimethylammonium p-toluenesulfonate], the “affinity for heart tissue” value in data set [4] was “marked affinity for heart tissue”. The Ratio heart/blood in data set [4] (5 min) was 3.05 ± 1.46; in data set [4] (15 min) it was 6.90 ± 8.34; in [4] (30 min) it was 17.33 ± 5.42; in data set [4] (1 hour), 20.09 ± 2.54; in data set [4] (2 hours), 21.90 ± 3.56; in data set [4] (4 hours (maximum), p-toluenesulfonate, 0.91 mg/kg, 240 min) it was 27.15 ± 4.30 and 27.15. The results for the Ratio heart/blood in [4] (6 hours) and in data set [4] (8 hours) were 18.62 ± 2.77 and 15.12 ± 2.69, respectively. Further, the µg equiv/g in data set [4] (5 min) is 1.59 ± 0.22 µg equiv/g; in data set [4] (15 min), 1.73 ± 0.422 µg equiv/g; in [4] (30 min) it was 1.91 ± 0.278 µg equiv/g; in data set [4] (1 hour), 2.09 ± 0.406 µg equiv/g; in data set [4] (2 hours), 1.4 ± 0.042 µg equiv/g; in [4] (4 hours), 1.25 ± 0.248 µg equiv/g. The µg equiv/g in data set [4] (6 hours) is 0.863 ± 0.067 µg equiv/g; in [4] (8 hours), 0.652 ± 0.116 µg equiv/g. Moreover, the µg equiv/mL amounted to 0.434 ± 0.351 µg equiv/mL in [4] (5 min); 0.59 ± 0.295 µg equiv/mL in data set [4] (15 min); 0.124 ± 0.032 µg equiv/mL in data set [4] (30 min); 0.096 ± 0.008 µg equiv/mL in data set [4] (1 hour); 0.086 ± 0.041 µg equiv/mL in data set [4] (2 hours); 0.054 ± 0.013 µg equiv/mL in [4] (4 hours). Moreover, the µg equiv/mL was found to be 0.048 ± 0.007 µg equiv/mL in [4] (6 hours) and 0.048 ± 0.012 µg equiv/mL in data set [4] (8 hours). Also, the “concentration of drug in heart tissue” value in [4] (after 8 h) was found to be 0.65 μg equiv/g.

As for `CC(C)(S)C(N)C(=O)O` (racemic) [D,L-penicillamine, reference compound], in data set [2], the superoxide radicals scavenged turned out to be 14%. For the same molecule, the IC50 in [5] came to 73 µM.

For `Cc1c(C)c2c(c(C)c1O)CCC(C)(C(=O)O)O2` (centres unmarked) [Trolox, 3,4dihydro-6-hydroxy-2,5,7,8-tetramethyl-2H-1-benzopyrane-2-carboxylic acid, reference compound], the IC50 in data set [2] (setting [8]) stood at 28 µM; in data set [5] it was 105 ± 8 µM. Further, in the data set on human α1 Pi (at 1 mM), the “protection of α1 Pi (Relative PC50 column)” value is “Inactive at 1 mM”.

superoxide dismutase: in [2] (30 U superoxide dismutase, 4 mU xanthine oxidase, 0.1 mM xanthine, 40 μM nitro blue tetrazolium), the “inhibition of nitro blue tetrazolium reduction” value is on record as 90%. Also, the “canine myocardial reperfusion injury” value in [3] is “reduce canine myocardial reperfusion injury”.

On to `Cc1c(C)c2c(c(C)c1O)CCC(C)(CC[N+](C)(C)C)O2` (racemic) [Example 1, 2-(3,4-Dihydro-6-hydroxy-2,5,7,8-tetramethyl-2H-1-benzopyran-2-yl)ethyl-N,N,N-trimethylammonium bromide], for which the IC50 in [5] came to 138 ± 14 µM.

Consider `Cc1c(C)c2c(c(C)c1O)CCC(C)(CCN(C)C)O2` (centres unmarked) [Compound B, 3,4-dihydro-2-(2-dimethylaminoethyl)-2,5,7,8-tetramethyl-2H-1-benzopyran-6-ol], for which, in data set [2] (setting [8]), the IC50 came to 28 µM. For the same molecule, in the data set with human α1 Pi, the “Relative PC50” value was determined as 7.3 μM/μg leukocyte protein and the “inactivation of α1 Pi” value is reported as “antagonized”.

For `Cc1c(C)c2c(c(C)c1O)CCC(C)(CC[N+](C)(C)C)O2` (centres unmarked) [Compound A, 3,4-Dihydro-6-hydroxy-N,,N,N,2,5,7,8-heptamethyl-2H-1-benzopyran-2-ethanaminium 4-methylbenzenesulfonate], the IC50 in data set [2] (setting [8]) turned out to be 28 µM. In data set [6], the oral absorption result is “not or ally absorbed” and the “recovery in the feces” value is recorded as “found unchanged in the feces”. The oral absorption result in data set [6] (listed as Example 11) is “not orally absorbed”. In addition, in the data set with β2 -receptors, the “density of β2 -receptors” value was “further increased the density of β2 -receptors”. Moreover, in data set [7], the cardiac output entry is “enhanced” and the contractility entry is listed as “enhanced”. In the data set on human α1 Pi, the “Relative PC50” value turned out to be 4.5 ± 1 μM/μg leukocyte protein and the “inactivation of α1 Pi” value is recorded as “antagonized”.

With `CC(C)(Sc1cc(C(C)(C)C)c(O)c(C(C)(C)C)c1)Sc1cc(C(C)(C)C)c(O)c(C(C)(C)C)c1` [probucol], the anti-atherosclerotic effect result in the data set with hyperlipidemic rabbits is recorded as “marked anti-atherosclerotic effect”.
